This is an account of results in US12016834B2, “Small molecule inhibitors of SLC25A1” (GEORGETOWN UNIVERSITY, priority 2017, dated 2024).

The target in one assay is SLC25A1 (Homo sapiens, UniProt P53007). In words: Surface plasmon resonance (SPR) binding to recombinant purified SLC25A1. Conditions: steady state, 1:1 binding model; human protein. Here is the method:
Surface Plasmon Resonance (SPR). SPR experiments were performed on a Biacore 4000 instrument at room temperature. The NTA sensorchip surface was activated by injecting 0.5 mM NiCl2 for 1 minute. Histidine-tagged recombinant purified SLC25A1 protein (0.07 mg/ml stock concentration) was used as the ligand to capture on the sensor surface. SLC25A1 was dissolved (1:50 dilution) in PBS-P (20 mM phosphate buffer (pH 7.4), 2.7 mM KCl, 137 mM NaCl and 0.05% surfactant P20) buffer and captured onto spots 2 and 4. SLC25A1 was captured to a level of ˜3000. PBS-P was used as the capture running buffer. Small molecules were used as analytes to flow over the ligand immobilized surface. Spot 3 of all flow cells were used as reference. The calculated theoretical Rmax was ˜30 RU based on a 1:1 interaction. The kinetics experiments were performed in the presence of HBS-P (10 mM HEPES (pH7.4), 150 mM NaCl, and 0.05% surfactant P20). The flow rate of all the solutions was maintained at 30 μL/min. The analyte concentrations were 0 μM, […], 6.25 μM, 12.5 μM, 25 μM, 50 μM, and 100 μM. Analyte concentrations showing signs of aggregation were excluded from the analysis. Data were analyzed by Biacore BiaEvaluation software for 1:1 steady state binding model.

Assay [1] deals with H1299 cells. In words: Proliferation / viability in monolayer (2D) cultures. The assay is classed as cell-based, human. Here is the method: Cellular proliferation and cytotoxicity assays. The proliferative capacity of cells was assessed by plating cells in triplicate at a concentration of 2,000 to 10,000 cells/well in 96 well plates in triplicate, with or without drug treatment for 48 hours. The cells were then washed with 1×PBS and fixed with cold 100% methanol at−20° C. for 20 minutes. Methanol was washed off and the cells were stained with 0.5% crystal violet dissolved in 25% methanol and water at 4° C. for 20 minutes. The staining was washed off using deionized (DI) water and the plate was dried overnight. On the second day, 100 mM sodium citrate in 50% ethanol and 50% water was added to the wells and absorbance at 550 nm was measured and corrected with readings at 405 nm. In other experiments, cell viability was assessed by trypan blue exclusion and visual count of the live cells was performed.

The test system of assay [2] is H1299 cells. In words: Citrate levels in mitochondrial or cytoplasmic fractions. The conditions noted are these: 4 hours. The class given is cell-based, human. As to the method: (§1) Cells, reagents, antibodies, primers. The H1299 cell lines and other cell lines employed in this study were obtained from ATCC or from the tissue culture core facility at LCCC. Cells were grown in Dulbecco's Modified Eagle's Medium (DMEM, 25 mM glucose, with glutamine and pyruvate from Invitrogen; Carlsbad, CA) and supplemented with 10% fetal calf serum (FCS). […] The SLC25A1 specific shRNA vectors were purchased from Sigma. The vector expressing human SLC25A1 untagged or Flag-Myc epitope tagged were from Origene; Rockville, MD (#SC120727 and RC200657, respectively). The anti-SLC25A1 antibody used in immuno-blot was from Santa Cruz Biotech, #sc-86392 employed at 1:1000 dilution. Citrate, lactate, and PFK measurements were performed by using commercially available kits (Biovision (Milpitas, CA)).
Mitochondria isolation and cellular sub-fractionation. Mitochondria and cytoplasmic fractions were prepared as follows. Cells were collected in PBS for 5′, then the pellet was e-suspended in 5 packed cell volumes of mitochondria buffer (250 mM sucrose; 20 mM HEPES (7.4); 10 mM KCl, 1.5 mM MgCl2; 1 mM EDTA; 1 mM EGTA 0.5 M, supplemented with freshly added PMSF and 1 mM […]). Cell lysates were passed through a 25 G needle 10 times, then 5 times through a 27 G needle, followed by incubation on ice for 10-15 minutes. Extracts were centrifuged at 720 G for 5 minutes. The supernatant was centrifuged again at 10000 G and the derived pellet provided the mitochondrial fraction and the supernatant provided the cytoplasmic fraction. To extract the mitochondria for measurement of citrate, the pellet from the previous centrifugation was resuspended in PBS and subjected to 3 cycles of freeze-and-thaw in dry ice immersed in ethanol. The fraction was centrifuged again and re-suspended in PBS. The supernatant (containing cytosolic and membrane fractions) was centrifuged multiple times to eliminate particulate material, and was used as the cytosolic fraction.

Assay [3] deals with H1299 cells. In words: Glycolysis: ECAR (Seahorse) and lactic acid levels. The class given is cell-based, human. As to the method:
as §1
Seahorse extracellular flux analyzer experiments. Cells derived from spheres or monolayer cultures were dissociated and plated overnight at 12,000 cells/well in DMEM with 10% FBS, 5 mM glucose, 1 mM pyruvate, 2 mM glutamine.
For the mitochondrial stress test, the media was replaced with DMEM without FBS or bicarbonate, containing 5 mM glucose, 1 mM pyruvate, 2 mM glutamine and placed in a CO2 free incubator at 37° C. for 1 hour, and then transferred to the Xf96 extracellular flux analyzer (Agilent; Santa Clara, CA). The program consisted of 3 measurements of OCR/ECAR before the injection of each drug: oligomycin (0.5 μM final concentration), FCCP (2 μM) and rotenone/antimycin (0.5 μM of each). For the glycolysis stress test, cells were plated overnight as above, and the media was washed twice the following day with DMEM without FBS, bicarbonate, glucose, glutamine or pyruvate, and incubated in this media in a CO2 free incubator with/without drug treatments at 37° C. for 4 hours. There were 3 measurements of OCR/ECAR before each injection: glucose (10 mM final concentration), oligomycin (0.5 […] (50 mM). For the analysis of glutamine oxidation, the protocol was the same as the glucose stress test, but with glutamine being the only compound injected (final concentration 4 mM) and OCR/ECAR measured for 60 minutes. When spheres were analyzed, they were dissociated with StemPro® Accutase® (Thermo Scientific; Waltham, MA) and plated under the same conditions as above as for the monolayers the day before the assay (H1299 spheres), or in stem cell media (See Stem Cell Media) with the wells coated in 15 μL of 2% geltrex diluted in DMEM:F12 (Thermo Scientific). The results were normalized to cell number.

SLC25A1, sequence (P53007 14-311): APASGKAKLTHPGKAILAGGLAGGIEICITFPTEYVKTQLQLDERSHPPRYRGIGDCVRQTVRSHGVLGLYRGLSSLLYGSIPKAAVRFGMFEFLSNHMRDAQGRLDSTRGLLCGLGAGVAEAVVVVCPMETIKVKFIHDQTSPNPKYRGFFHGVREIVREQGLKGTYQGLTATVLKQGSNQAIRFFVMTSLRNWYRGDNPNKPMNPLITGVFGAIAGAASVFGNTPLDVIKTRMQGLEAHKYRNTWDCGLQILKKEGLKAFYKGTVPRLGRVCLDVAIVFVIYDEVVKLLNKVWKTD

Consider `O=C(O)c1ccccc1NS(=O)(=O)c1ccc(Cl)c([N+](=O)[O-])c1` [CTPI-2], for which the Kd at SLC25A1 is 5.3 µM. Further, in the assay on H1299 cells [1] (SLC25A1-shRNA lentivirus, live cells counted after one week), the “proliferation of cells expressing the SLC25A1-shRNA” value was “failed to inhibit proliferation”. In the assay with H1299 cells [1] (monolayer or methylcellulose single cells (FIG. 3J)), the “anti-proliferative activity, ranges of concentrations” value is “anti-proliferative activity at comparable ranges of concentrations”. Besides, in the assay on H1299 cells [2] (2D cultures), the cytoplasmic citrate entry is “reduction of cytoplasmic citrate” and the mitochondrial citrate entry was “induced accumulation of mitochondrial citrate”. Besides, in the assay with H1299 cells [2] (spheres), the cytosolic citrate result is listed as “without affecting the cytosolic citrate” and the mitochondrial citrate result is “starkly decreased mitochondrial citrate”. For the same molecule, the lactic acid levels entry in the assay with H1299 cells [3] (monolayer cultures) is on record as “increase in lactic acid levels”. Besides, in the assay on H1299 cells [3] (monolayer cultures, after 10 mM glucose injection), the ECAR rates result was “starkly induced”. The “ECAR and lactic acid levels” value with H1299 cells [3] (spheres) is “remained unchanged or were slightly diminished”.
